Structures can show the parent of a compound that is named as a salt. Where two headings read alike, the source gives them in different places. Values belong to the compound of their own block, whether it stands above or below them.
Target: T1, Rat brain protein farnesyltransferase (Rattus norvegicus, UniProt Q02293+Q04631)
T1 construct: Rat brain protein farnesyltransferase activity is measured; from tissue; host or cells: rat brain
Assay: % inhibition of farnesylation, scintillation proximity assay with biotin-K Ras B fragment
Type: biochemical
Conditions: for % inhibition at 1 × 10^-8 M: Table 4; for inhibition at 1 µM: read-out: % inhibition at 1 × 10^-6 M; for % inhibition at 1 × 10^-5 M: Table 1
Outline: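 Scintillation proximity read-out of farnesylation, using a biotinylated K Ras B fragment (0.1 mM final) in place of biotin-lamin. Enzyme purified from rat brain; results given as % inhibition.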

[1] = read-out: % inhibition at 1 × 10^-7 M
[2] = read-out: % inhibition at 1 × 10^-8 M
[3] = read-out: % inhibition at 1 × 10^-7 M, Table 3, 1 × 10^-7 M

T1 sequence (Q02293 whole entry, one chain of several): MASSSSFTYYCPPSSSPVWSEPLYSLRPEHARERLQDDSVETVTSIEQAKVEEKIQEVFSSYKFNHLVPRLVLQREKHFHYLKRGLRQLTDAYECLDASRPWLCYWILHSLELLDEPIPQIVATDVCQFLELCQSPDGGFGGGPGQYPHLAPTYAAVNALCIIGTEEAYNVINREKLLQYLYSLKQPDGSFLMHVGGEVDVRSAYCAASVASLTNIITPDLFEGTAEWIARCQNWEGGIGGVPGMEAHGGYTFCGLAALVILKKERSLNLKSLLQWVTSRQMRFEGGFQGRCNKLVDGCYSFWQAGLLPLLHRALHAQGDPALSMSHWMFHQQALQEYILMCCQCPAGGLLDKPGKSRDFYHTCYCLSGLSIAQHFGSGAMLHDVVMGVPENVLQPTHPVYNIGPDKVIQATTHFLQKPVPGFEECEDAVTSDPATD

Structure (SMILES): CSCC[C@H](NC(=O)c1ccc(COC2CCC(NC(=O)OC(C)(C)C)CC2)cc1-c1ccccc1C)C(=O)O (stereo partly shown) [Example 817, N-[4-(4-t-butoxycarbonylaminocyclohexyloxymethyl)-2-(2-methylphenyl)benzoyl]methionine lithium salt]
inhibition at 0.1 µM [1]: 60%

Structure (SMILES): CSCC[C@H](NC(=O)c1ccc(COCc2cncs2)cc1-c1ccccc1C)C(=O)O [Example 539, N-[4-(thiazol-5-ylmethoxymethyl)-2-(2-methylphenyl)benzoyl]methionine lithium salt]
inhibition at 0.1 µM [1]: 89%

Structure (SMILES): CSCC[C@H](NC(=O)c1ccc(COCc2cnc(-c3cccc(Cl)c3)s2)cc1-c1ccccc1C)C(=O)O [Example 899, N-[4-(2-(3-chlorophenyl)thiazol-5-ylmethoxymethyl)-2-(2-methylphenyl)benzoyl]methionine lithium salt]
inhibition at 0.01 µM [2]: 88%

Structure (SMILES): CSCC[C@H](NC(=O)c1ccc(CN(CCO)c2ccccc2)cc1-c1ccccc1)C(=O)O [Example 505]
% inhibition at 1 × 10^-6 M (Table 2, 1 × 10^-6 M): 72%

Structure (SMILES): CSCC[C@H](NC(=O)c1ccc(COC(CCC2CCCCC2)c2cccc(Cl)c2)cc1-c1ccccc1C)C(=O)O (stereo partly shown) [Example 1207, N-[4-(1-(3-chlorophenyl)-3-cyclohexylpropan-1-yloxymethyl)-2-(2-methylphenyl)benzoyl]methionine lithium salt]
inhibition at 0.1 µM (read-out: % inhibition at 0.1 μM (*)): 91%

Structure (SMILES): CSCC[C@H](NC(=O)c1ccc(COCc2cccc(C)c2)cc1-c1ccccc1C)C(=O)O [Example 578, N-[4-(3-methylbenzyloxymethyl)-2-(2-methylphenyl)benzoyl]methionine lithium salt]
inhibition at 0.1 µM [1]: 90%

Structure (SMILES): CSCC[C@H](NC(=O)c1ccc(CSc2nc3ccccc3o2)cc1-c1ccccc1C)C(=O)O [Example 322, [4-(2-benzoxazolylthiomethyl)-2-(2-methylphenyl)benzoyl]methionine]
inhibition at 1 µM (Table 2, 1 × 10^-6 M): 98%

Structure (SMILES): CSCC[C@H](NC(=O)c1ccc(COCc2ccccc2)cc1-c1ccccc1)C(=O)O [Example 575, N-[4-(benzyloxymethyl)-2-phenylbenzoyl]methionine]
inhibition at 1 µM (Table 2, 1 × 10^-6 M): 70%

Structure (SMILES): CSCC[C@H](NC(=O)c1ccc(COCc2ccccc2)cc1-c1ccccc1C)C(=O)NS(=O)(=O)c1ccc(Cl)cc1 [Example 581, 4-chlorobenzenesulfonyl N-2-[4-(benzyloxymethyl)-2-(2-methylphenyl)benzoyl]amino-4-methylthiobutanamide]
inhibition at 0.1 µM [3]: 96%

Structure (SMILES): CSCC[C@H](NC(=O)c1ccc(COCc2ccc(-c3ccc(F)cc3)o2)cc1-c1ccc(F)cc1Cl)C(=O)O [Example 869, N-[4-(5-(4-fluorophenyl)furan-2-ylmethoxymethyl)-2-(2-chloro-4-fluorophenyl)benzoyl]methionine lithium salt]
inhibition at 0.1 µM [1]: 92%

Structure (SMILES): CSCC[C@H](NC(=O)c1ccc(COCCc2ccccc2)cc1-c1ccccc1C)C(=O)O [Example 587, N-[4-(2-phenylethoxymethyl)-2-(2-methylphenyl)benzoyl]methionine lithium salt]
inhibition at 1 µM: 97%

Structure (SMILES): CSCC[C@H](NC(=O)c1ccc(COCc2ccc(-c3ccc(C(C)=O)cc3)o2)cc1-c1ccccc1C)C(=O)O [Example 449, N-[4-(5-(4-acetylphenyl)furan-2-ylmethoxymethyl)-2-(2-methylphenyl)benzoyl]methionine lithium salt]
inhibition at 0.1 µM [1]: 91%

Structure (SMILES): CSCC[C@H](NC(=O)c1ccc(COC2CCN(C(=O)OC(C)(C)C)CC2)cc1-c1ccccc1C)C(=O)O [Example 808, N-[4-(1-t-butoxycarbonylpiperidin-4-yloxymethyl)-2-(2-methylphenyl)benzoyl]methionine lithium salt]
inhibition at 1 µM: 88%

Structure (SMILES): CSCC[C@H](NC(=O)c1ccc(COC(CCC2CCCCC2)c2ccnnc2)cc1-c1ccccc1C)C(=O)O (stereo partly shown) [Example 1349, N-[4-(1-(Pyridazin-4-yl)-3-cyclohexylpropan-1-yloxymethyl)-2-(2-methylphenyl)benzoyl]methionine lithium salt]
inhibition at 0.01 µM (read-out: % inhibition at 0.01 μM (**)): 92%

Structure (SMILES): CCCCC(OCc1ccc(C(=O)N[C@@H](CCSC)C(=O)O)c(-c2ccccc2C)c1)c1ccc(-c2ccc(Cl)cc2)o1 (stereo partly shown) [Example 826, N-[4-(1-(5-(4-chlorophenyl)furan-2-yl)pentyloxymethyl)-2-(2-methylphenyl)benzoyl]methionine lithium salt]
inhibition at 0.01 µM [2]: 92%

Structure (SMILES): COc1ccc(CC(=O)Nc2ccc(C(=O)N[C@@H](CCSC)C(=O)O)c(-c3ccccc3C)c2)cc1 [Example 542]
% inhibition at 1 × 10^-6 M (Table 2, 1 × 10^-6 M): 67%

Structure (SMILES): COc1cccc(COCc2ccc(C(=O)N[C@@H](CCSC)C(=O)O)c(-c3ccccc3C)c2)c1 [Example 932, N-[4-(3-methoxybenzyloxymethyl)-2-(2-methylphenyl)benzoyl]methionine lithium salt]
inhibition at 0.01 µM [2]: 60%

Structure (SMILES): CSCC[C@H](NC(=O)c1ccc(CCc2ccc3ccccc3c2)cc1-c1ccccc1C)C(=O)O [Example 468]
% inhibition at 1 × 10^-6 M (Table 2, 1 × 10^-6 M): 96%

Structure (SMILES): CSCC[C@H](NC(=O)c1ccc(COCc2ccc(Cl)cc2)cc1-c1ccccc1C)C(=O)O [Example 933, N-[4-(4-chlorobenzyloxymethyl)-2-(2-methylphenyl)benzoyl]methionine lithium salt]
inhibition at 0.1 µM [1]: 91%

Structure (SMILES): CSCC[C@H](NC(=O)c1ccc(COCc2ccccc2)cc1-c1ccccc1C)C(=O)NS(=O)(=O)c1ccc(C)cc1 [Example 582, 4-methylbenzenesulfonyl N-2-[4-(benzyloxymethyl)-2-(2-methylphenyl)benzoyl]amino-4-methylthiobutanamide]
inhibition at 1 µM (Table 2, 1 × 10^-6 M): 99%

Structure (SMILES): CSCC[C@H](NC(=O)c1ccc(CN(CCC23CC4CC(CC(C4)C2)C3)c2ccccc2)cc1-c1ccccc1C)C(=O)O [Example 511]
% inhibition at 1 × 10^-7 M (Table 3, 1 × 10^-7 M): 82%

Further lines, results first:

% inhibition at 1 × 10^-6 M (Table 2, 1 × 10^-6 M): 72%
Structure (SMILES): CSCC[C@H](NC(=O)c1ccc(CNCCN(C(C)C)C(C)C)cc1-c1ccccc1)C(=O)O [Example 636]

% inhibition at 1 × 10^-8 M: 91%
Structure (SMILES): CSCC[C@H](NC(=O)c1ccc(CN(C)CCC2CCCCC2)cc1-c1ccccc1C)C(=O)[O-].[Li+] [Example 608]

% inhibition at 1 × 10^-5 M: 56%
Structure (SMILES): CSCC[C@H](NC(=O)c1ccc(CNC(CO)Cc2ccccc2)cc1-c1ccccc1)C(=O)O (stereo partly shown) [Example 714]

% inhibition at 1 × 10^-6 M (Table 2, 1 × 10^-6 M): 99%
Structure (SMILES): CSCC[C@H](NC(=O)c1ccc(CN[C@H](CO)CC2CCCCC2)cc1-c1ccccc1C)C(=O)O [Example 617]

% inhibition at 1 × 10^-7 M (Table 3, 1 × 10^-7 M): 90%
Structure (SMILES): CSCC[C@H](NC(=O)c1ccc(CN2CCC[C@@H]2COCc2ccccc2)cc1-c1ccccc1C)C(=O)O [Example 993]

% inhibition at 1 × 10^-6 M (Table 2, 1 × 10^-6 M): 96%
Structure (SMILES): CSCC[C@H](NC(=O)c1ccc(CNCCC2CCCCC2)cc1-c1ccccc1C)C(=O)O.O=C(O)C(F)(F)F [Example 607]

% inhibition at 1 × 10^-5 M: 79%
Structure (SMILES): CSCC[C@H](NC(=O)c1ccc(CNc2ccc(C(=O)c3ccccc3)cc2)cc1-c1ccccc1)C(=O)O [Example 702]

inhibition at 0.01 µM (read-out: % inhibition at 0.01 μM (**), Table 6, ** footnote 0.01 μM (title: 0.01 mM)): 81%
Structure (SMILES): CSCC[C@H](NC(=O)c1ccc(CO[C@H](COCC(O)CO)CC2CCCCC2)cc1-c1ccccc1C)C(=O)O (stereo partly shown) [Example 1347, N-[4-(3-Cyclohexyl-1-(2,3-dihydroxy-1-propoxy)-prop-2-yloxymethyl)-2-(2-methylphenyl)benzoyl]methionine, Lithium Salt]

% inhibition at 1 × 10^-6 M (Table 2, 1 × 10^-6 M): 86%
Structure (SMILES): CSCC[C@H](NC(=O)c1ccc(CN(CCC#N)Cc2ccccc2)cc1-c1ccccc1)C(=O)O [Example 649]

inhibition at 0.1 µM (read-out: % inhibition at 0.1 μM (*), Table 6, * footnote 0.1 μM (title: 0.1 mM)): 74%
Structure (SMILES): CSCC[C@H](NC(=O)c1ccc(COC(c2ccccc2)C2CCOCC2)cc1-c1ccccc1C)C(=O)O (stereo partly shown) [Example 1283, N-[4-(1-(4-tetrahydropyranyl)benzyloxymethyl-2-(2-methylphenyl)benzoyl]methioninelithium salt]

% inhibition at 1 × 10^-6 M (Table 2, 1 × 10^-6 M): 87%
Structure (SMILES): CCc1nnc(NCc2ccc(C(=O)N[C@@H](CCSC)C(=O)O)c(-c3ccccc3C)c2)s1 [Example 723]

% inhibition at 1 × 10^-5 M: 55%
Structure (SMILES): COc1cc2c(cc1OC)C(CNCc1ccc(C(=O)N[C@@H](CCSC)C(=O)O)c(-c3ccccc3)c1)=CC(C1CCCCC1)C2 (stereo partly shown) [Example 659]

inhibition at 1 µM (Table 2, 1 × 10^-6 M): 74%
Structure (SMILES): CSCC[C@H](NC(=O)c1ccc(COCc2ccc(-c3ccc(F)cc3)o2)cc1-c1ccccc1C(F)(F)F)C(=O)O [Example 872, N-[4-(5-(4-fluorophenyl)furan-2-ylmethoxymethyl)-2-(2-trifluoromethylphenyl)benzoyl]methionine Lithium salt]

% inhibition at 1 × 10^-6 M (Table 2, 1 × 10^-6 M): 88%
Structure (SMILES): CCSC[C@H](CC1CCCCC1)NCc1ccc(C(=O)N[C@@H](CCSC)C(=O)OCOC(=O)C(C)(C)C)c(-c2ccccc2C)c1 [Example 764]

% inhibition at 1 × 10^-6 M (Table 2, 1 × 10^-6 M): 97%
Structure (SMILES): CSCC[C@H](NC(=O)c1ccc(CN[C@H](C)CC2CCCCC2)cc1-c1ccccc1C)C(=O)O [Example 613]

% inhibition at 1 × 10^-8 M: 71%
Structure (SMILES): CSCC[C@H](NC(=O)c1ccc(CN(c2ccccc2)S(=O)(=O)c2ccc(C(F)(F)F)cc2)cc1-c1ccccc1C)C(=O)O [Example 780]

inhibition at 0.1 µM [3]: 60%
Structure (SMILES): CSCC[C@H](NC(=O)c1ccc(CSc2nc3cc(C)ccc3[nH]2)cc1-c1ccccc1C)C(=O)O [Example 733]

% inhibition at 1 × 10^-5 M: 74%
Structure (SMILES): CSCC[C@H](NC(=O)c1ccc(CNc2ccc(C3CCCCC3)cc2)cc1-c1ccccc1)C(=O)O [Example 699]

% inhibition at 1 × 10^-7 M (Table 3, 1 × 10^-7 M): 90%
Structure (SMILES): CSCC[C@H](NC(=O)c1ccc(CN(c2ccccc2)S(=O)(=O)c2ccccc2)cc1-c1ccccc1C)C(=O)O [Example 769]

% inhibition at 1 × 10^-7 M (Table 3, 1 × 10^-7 M): 89%
Structure (SMILES): CSCC[C@H](NC(=O)c1ccc(CN[C@@H](CO)CC2CCCCC2)cc1-c1ccccc1C)C(=O)O [Example 618]

% inhibition at 0.1 μM (*) (Table 6, * footnote 0.1 μM (title: 0.1 mM)): 83%
Structure (SMILES): CCC(=O)N(CCCc1ccc(C(=O)N[C@@H](CCSC)C(=O)O)c(-c2ccccc2C)c1)C1CCCCC1 [Example 1145]

% inhibition at 1 × 10^-5 M: 67%
Structure (SMILES): CSCC[C@H](NC(=O)c1ccc(CN[C@H](CC2CCCCC2)[C@H](O)[C@H](O)CC(C)C)cc1-c1ccccc1)C(=O)O [Example 715]

From patent US6204293A, “Inhibitors of protein isoprenyl transferases” (University of Pittsburgh, priority 1998, dated 2001)
